Where two headings read alike, the source gives them in different places.
Columns and labels:
[1] = Blood pressure study, tail cuff, 10 minute intravenous infusion; assay type: in vivo, Sprague Dawley rats; conditions: 400 nmol/kg infused over 10 minutes; significant drop = drop of at least 10%
Procedure: An external pumping device was used to deliver the target dose volume for each animal over a 10 minute dosing interval. Blood pressure was measured by tail cuff using the CODA Non-Invasive Blood Pressure system. Animals were placed in restrainers with the tail cuff on. The animals and the restrainers were then placed on a heating pad for approximately 5 minutes. Following the 5 minute heating pad acclimation an additional acclimation data collection took place prior to dose initiation for approximately 5 minutes. Blood pressure data began at dose initiation and was collected through at least 30 minutes postdose. […] Test articles were infused over 10 minutes. The start and stop times for the following processes were documented. The following parameters were collected: diastolic pressure, systolic pressure, mean blood pressure, heart rate, tail blood flow, and tail blood volume.

[2] = In vivo half-life / NCA pharmacokinetics of albumin binding conjugates in rat plasma; design: species or system rats; conditions: for half-life: iv, 1 mg/kg
Procedure: Compound 3 and Compound 4 were administered to rats at 1 mg/kg via IV. […] Therefore, the concentration of Compound 3′ is measured after treating plasma samples at a low pH.

Once/week MTD = conditions: in vivo
SW48 cells = experiment: IC50 in SW48 cells; assay type: cell-based, human
[3] = system: SW48 xenograft model (human colorectal cancer); experiment: Efficacy study in SW48 xenograft model, tumor growth inhibition; assay type: in vivo; conditions: irinotecan 50 mg/kg once/week for two weeks
Procedure: Efficacy of Compound 3 was tested in an SW48 xenograft model (human colorectal cancer). Efficacies of the other compounds in Table 2 were also tested. All conjugates were dosed twice/week for two weeks.

[4] = transthyretin, 55 KDa serum protein, background statement; cited from earlier work
[5] = in vivo, IV 1.0 mg/kg, plasma, measured as Compound 3′ after low pH treatment
[6] = Day 4, conjugates twice/week for two weeks (3, 4, 7, 8: 2.0 mg/kg; 5, 6: 0.025 mg/kg)
[7] = Day 8, conjugates twice/week for two weeks (3, 4, 7, 8: 2.0 mg/kg; 5, 6: 0.025 mg/kg)
[8] = Day 10, conjugates 2.0 mg/kg twice/week for two weeks
[9] = Day 14, conjugates 2.0 mg/kg twice/week for two weeks
[10] = Day 17, conjugates 2.0 mg/kg twice/week for two weeks
[11] = Day 21, conjugates 2.0 mg/kg twice/week for two weeks

COc1cc2cc(c1Cl)N(C)C(=O)C[C@H](OC(=O)[C@H](C)N(C)C(=O)CCSC1CC(=O)N(CCCNC(=O)CNC(=O)[C@H](CC(C)C)NC(=O)[C@H](Cc3ccccc3)NC(=O)CNC(=O)CCC(=O)NCCCC[C@H](NC(=O)c3ccc(/C(C)=N/NC(=O)CCCCCN4C(=O)C=CC4=O)cc3)C(=O)N3CCC[C@H]3C(=O)N(C)[C@@H](CCCNC(=N)N)C(=O)N[C@@H](CCCNC(=N)N)C(=O)N3CCC[C@H]3C(=O)N[C@@H](Cc3ccc(O)cc3)C(=O)N[C@H](C(=O)N[C@@H](CC(C)C)C(=O)O)C(C)(C)C)C1=O)[C@]1(C)O[C@H]1[C@H](C)[C@@H]1C[C@@](O)(NC(=O)O1)[C@H](OC)/C=C/C=C(\C)C2 (stereo partly drawn) [Compound 3]
mean blood pressure change [1]: no significant drop in mean blood pressure
rat plasma half-life relative to Compound 4 (does not bind albumin) ([2]; IV 1 mg/kg): 80 fold
AUC [2, 5]: 33.7 µM·h
AUC(0-inf) [2, 5]: 39.3 µM·h
Cmax [2, 5]: 4.69 µM
clearance [2, 5]: 0.16 mL/min/kg
Vd ([2]; in vivo, IV 1.0 mg/kg, plasma, measured as Compound 3′ after low pH treatment, read-out: Vss): 0.107 L/kg
half-life ([2]; in vivo, IV 1.0 mg/kg, plasma, measured as Compound 3′ after low pH treatment of plasma samples, read-out: t½ (converted)): 9.32 h
half-life ([2]; in vivo, IV 1 mg/kg, read-out: rat plasma half-life (converted)): 9.3 h
MTD (Once/week MTD): 4 to 8 mg/kg

COc1cc2cc(c1Cl)N(C)C(=O)C[C@H](OC(=O)[C@H](C)N(C)C(=O)CCSC1CC(=O)N(CCCNC(=O)CNC(=O)[C@H](CC(C)C)NC(=O)[C@H](Cc3ccccc3)NC(=O)CNC(=O)CCC(=O)NCCCC[C@H](NC(C)=O)C(=O)N3CCC[C@H]3C(=O)N(C)[C@@H](CCCNC(=N)N)C(=O)N[C@@H](CCCNC(=N)N)C(=O)N3CCC[C@H]3C(=O)N[C@@H](Cc3ccc(O)cc3)C(=O)N[C@H](C(=O)N[C@@H](CC(C)C)C(=O)O)C(C)(C)C)C1=O)[C@]1(C)O[C@H]1[C@H](C)[C@@H]1C[C@@](O)(NC(=O)O1)[C@H](OC)/C=C/C=C(\C)C2 (stereo partly drawn) [Compound 4]
mean blood pressure change [1]: significant drop in mean blood pressure
IC50 (SW48 cells): 3.7 nM
degradation in rat plasma compared with albumin bound Compound 3 ([2]; IV 1 mg/kg, FIG. 3): degraded faster
MTD (Once/week MTD): > 8 mg/kg

COc1ccc(C2=CN3C(=O)c4cc(OC)c(OCCCOc5cc6c(cc5OC)C(=O)N5C=C(c7ccc(NC(=O)[C@H](C)NC(=O)[C@@H](NC(=O)CCCCCN8C(=O)CC(SCCC(=O)NCCCC[C@H](NC(C)=O)C(=O)N9CCC[C@H]9C(=O)N(C)[C@@H](CCCNC(=N)N)C(=O)N[C@@H](CCCNC(=N)N)C(=O)N9CCC[C@H]9C(=O)N[C@@H](Cc9ccc(O)cc9)C(=O)N[C@H](C(=O)N[C@@H](CC(C)C)C(=O)O)C(C)(C)C)C8=O)C(C)C)cc7)C[C@H]5C=N6)cc4N=C[C@@H]3C2)cc1 (stereo partly drawn) [Compound 5]
TGI % [3, 6]: 21.3%
TGI % [3, 7]: 45.9%
IC50 (SW48 cells): 1.8 nM
MTD (Once/week MTD): 0.05 mg/kg

COc1ccc(C2=CN3C(=O)c4cc(OC)c(OCCCOc5cc6c(cc5OC)C(=O)N5C=C(c7ccc(NC(=O)[C@H](C)NC(=O)[C@@H](NC(=O)CCCCCN8C(=O)CC(SCCC(=O)NCCCC[C@H](NC(C)=O)C(=O)N9CCC[C@H]9C(=O)N[C@@H](CC(C)C)C(=O)N9CCC[C@H]9C(=O)N(C)[C@@H](CCCNC(=N)N)C(=O)N[C@H](C(=O)N[C@@H](CCCNC(=N)N)C(=O)N[C@@H](Cc9ccc(O)cc9)C(=O)O)C(C)(C)C)C8=O)C(C)C)cc7)C[C@H]5C=N6)cc4N=C[C@@H]3C2)cc1 (stereo partly drawn) [Compound 6]
TGI % [3, 6]: 22.2%
TGI % [3, 7]: 28.3%
IC50 (SW48 cells): 4 nM
MTD (Once/week MTD): 0.05 mg/kg

COc1cc2cc(c1Cl)N(C)C(=O)C[C@H](OC(=O)[C@H](C)N(C)C(=O)CCSC1CC(=O)N(CCCNC(=O)CNC(=O)[C@H](CC(C)C)NC(=O)[C@H](Cc3ccccc3)NC(=O)CNC(=O)CCC(=O)NCCCC[C@H](NC(C)=O)C(=O)N3CCC[C@H]3CN[C@@H](CC(C)C)C(=O)N3CCC[C@H]3C(=O)N(C)[C@@H](CCCNC(=N)N)C(=O)N[C@H](C(=O)N[C@@H](CCCNC(=N)N)C(=O)N[C@@H](Cc3ccc(O)cc3)C(=O)O)C(C)(C)C)C1=O)[C@]1(C)O[C@H]1[C@H](C)[C@@H]1C[C@@](O)(NC(=O)O1)[C@H](OC)/C=C/C=C(\C)C2 (stereo partly drawn) [Compound 7]
TGI % [3, 6]: −11%
TGI % [3, 7]: −22.6%
TGI % [3, 8]: −29.7%
TGI % [3, 9]: −32%
TGI % [3, 10]: −48.3%
TGI % [3, 11]: −52.8%
MTD (Once/week MTD): > 8 mg/kg

CCc1c2c(nc3ccc(OC(=O)N4CCC(N5CCCCC5)CC4)cc13)-c1cc3c(c(=O)n1C2)COC(=O)[C@]3(O)CC [Irinotecan, irinotecan, reference compound]
TGI % [3, 7]: 10%
TGI % [3, 8]: 12.8%
TGI % [3, 9]: 33%
TGI % [3, 10]: 34.9%
TGI % [3, 11]: 33.9%
MTD (Once/week MTD): 50 mg/kg

Transthyretin
in vivo half-life [4]: around 48 h
